Patent publication US4978783A, “2,6-dimethoxyhydroquinone-3-mercaptopropionic acid, 2,6-dimethoxyhydroquinone-3-mercaptoacetic acid, and antitumor use thereof” (National Science Council, priority 1990, dated 1990)
Values after ≈ are worked out from the molar mass of the structure shown. “Also recorded” adds a separate entry of the source.

Legend:
[1] = test system: human tumor cell lines; assay: Cytotoxicity against four/several human tumor cell lines, (MTT method); format: cell-based; settings: for cytotoxicity compared with DMQ, in words: drug without activator, versus DMQ; for cytotoxicity in combination with L-ascorbic acid or D-isoascorbic acid, in words: several human cancer cell lines, in vitro; for cytotoxicity at 100 µg/mL: 96 h, each alone, DMQ-MP 1 μg/ml or D-isoascorbic acid 100 μg/ml, read-out: cytotoxicity index (CI) value, summary
Excerpt: (§1) A convenient cytotoxicity assay adopted in this example for the evaluation of antitumor activity is the MTT method disclosed in an article by Twentyman and Luscombe, entitled "A study of some variables in a tetrazolium dye (MTT) based assay for cell growth and chemosensitivity" Br. J. Cancer. 56, 279-285 (1987).
(§2) Four different human cancer cell lines were used in this assay. These were KB (oral epidermoid carcinoma); Colo-205 (colon adenocarcinoma); HeLa (cervical carcinoma); and HEP-2 (larynx epidermoid carcinoma).
(§3) Cells were taken from exponential phase cultures and were allowed to grow in a plate containing 96 wells using RPMI-1640 medium supplemented with 5% fetal bovine serum, 1 mM glutamine and antibiotics (penicillin and streptomycin) at 37° C. in a CO2 incubator. Cell suspensions were trypsinized and disaggregated. 3×10^3 cells were inoculated into each well in 0.18 ml of medium, to which 0.02 ml of drug was added. After 4 days of culture, 0.1 mg of 3-(4,5-dimethylthiazol-2-yl)-2,5-diphenyltetrazolium bromide (MTT) was added to each well and the plate incubated for 4 hours. The medium was then removed, 0.2 ml DMSO was added to each well and the plate agitated for 10 min. The optical density of each well was measured at a 545 nm test wavelength and a 690 nm reference wavelength using a Titertek Multiskan plate reader. Absorbance levers from drug tested cells were corrected against untreated control values.

[2] = test system: HeLa (cervical carcinoma) cells; assay: Cytotoxicity against HeLa cells by the MTT method; format: cell-based, human; settings: 5760 min
Excerpt: as §1, §2, §3
(§4) *Cytotoxicity index (CI) = 100% × [1(O.D. of treated cells / O.D. o

[3] = Hydrophobicity (statement); format: physicochemical; settings: to gain passage into the cell via the cell membrane
[4] = test system: Colo-205 (colon adenocarcinoma) cells; assay: Cytotoxicity assay against Colo-205 cells by the MTT method; format: cell-based, human; settings: for Cytotoxicity index (CI): Table 1, 4 days; for CI: 5760 min; for CI value compared with DMQ, in words: versus DMQ
Method: Four different human cancer cell lines were used in this assay.
as §3, with “Cell” for “Cells were taken from exponential phase cultures and were allowed to grow in a plate containing 96 wells using RPMI-1640 medium supplemented with 5% fetal bovine serum, 1 mM glutamine and antibiotics (penicillin and streptomycin) at 37° C. in a CO2 incubator. Cell”
as §4

[5] = test system: HEP-2 (larynx epidermoid carcinoma) cells; assay: Cytotoxicity against HEP-2 cells by the MTT method; format: cell-based, human; settings: 5760 min
Excerpt: as §1, §2, §3, §4

[6] = Solubility in H2O; format: physicochemical; settings: for solubility relative to DMQ (times higher) / solubility: H2O, 27° C.; for solubility relative to DMQ (times higher): versus DMQ; for water-solubility, in words: compared with DMQ; for solubility: water
[7] = test system: KB (oral epidermoid carcinoma) cells; assay: Cytotoxicity against KB cells by the MTT method; format: cell-based, human; settings: 5760 min
Excerpt: as §1, §2, §3, §4

[8] = background statement; cited from earlier work
[9] = test system: Ehrlich ascites; settings: DMQ in combination with L-ascorbic acid; cited from earlier work
[10] = background statement; cited from earlier work; remark: listed apart in the source
[11] = test system: normal cells; settings: background statement; cited from earlier work
[12] = cited from earlier work
[13] = Table 3, DMQ-MA 1 μg/ml + L-ascorbate 100 μg/ml
[14] = Table 3, DMQ-MA 1 μg/ml, no activator
[15] = Table 3, L-ascorbate 100 μg/ml alone
[16] = Table 2, DMQ-MP 1 μg/ml + D-isoascorbic acid 100 μg/ml
[17] = Table 2, DMQ-MP 1 μg/ml, no activator
[18] = Table 2, D-isoascorbic acid 100 μg/ml alone

COc1cc(O)c(SCC(=O)O)c(OC)c1O [DMQ-MA, 2,6-dimethoxyhydroquinone-3-mercaptoacetic acid]
cytotoxicity compared with DMQ, in words [1]: less cytotoxic
cytotoxicity in combination with L-ascorbic acid or D-isoascorbic acid, in words [1]: greatly augmented; also recorded: act synergistically
CI [2, 13]: 79%
CI [2, 14]: 3%
hydrophobicity, in words [3]: a certain degree of hydrophobicity
Cytotoxicity index (CI) ([4]; drug 10 μg/ml, L-ascorbate 1.0 μg/ml (so in the source)): 22.1%
CI [4, 13]: 86%
CI [4, 14]: 0%
CI value compared with DMQ, in words ([4]; drug 10 μg/ml): significantly lower than DMQ
CI [5, 13]: 86%
CI [5, 14]: 2%
solubility relative to DMQ (times higher) [6]: about 70 times
water-solubility, in words [6]: a lot more water-soluble than DMQ; also recorded: significantly improved water-solubility in comparison with DMQ
solubility [6]: 5000 µg/mL (≈ 19.2 mM)
CI [7, 13]: 89%
CI [7, 14]: 0%

COC1=CC(=O)C=C(OC)C1=O [DMQ, 2,6-dimethoxy-p-benzoquinone]
solubility in water, in words [8]: poor solubility in water
Cytotoxicity index (CI) ([4]; drug 1.0 μg/ml, L-ascorbate 100 μg/ml): 76.6%
Cytotoxicity index (CI) ([4]; drug 10 μg/ml, no L-ascorbate): 87.9%
effect in Ehrlich ascites-bearing mice, in words [9]: effective
precipitation from the blood, in words [10]: precipitate from the blood easily
solubility [6]: 74 µg/mL (≈ 0.44 mM)
cytotoxicity to normal cells, in words [11]: certain degree of cytotoxicity; also recorded: destruction of normal cells

O=C1O[C@H]([C@@H](O)CO)C(O)=C1O [L-ascorbate, reference compound]
CI [2, 15]: 2%
CI [4, 15]: 5%
CI [5, 15]: 9%
concentration of L-ascorbate in the human body [12]: ≤ 1000 µM
CI [7, 15]: 0.4%

COc1cc(O)c(SCCC(=O)O)c(OC)c1O [DMQ-MP, 2,6-dimethoxyhydroquinone-3-mercaptopropionic acid]
cytotoxicity at 100 µg/mL ([1]; four human tumor cell lines): < 25%
CI values, summary ([1]; DMQ-MP 1 μg/ml in combination with D-isoascorbic acid 100 μg/ml, four human tumor cell lines, 5760 min): 77-88%
cytotoxicity compared with DMQ, in words [1]: less cytotoxic
cytotoxicity in combination with L-ascorbic acid or D-isoascorbic acid, in words [1]: greatly augmented; also recorded: act synergistically
CI [2, 16]: 88%
CI [2, 17]: 11%
hydrophobicity, in words [3]: a certain degree of hydrophobicity
Cytotoxicity index (CI) ([4]; drug 10 μg/ml, no L-ascorbate): 43.5%
CI [4, 16]: 78%
CI [4, 17]: 17%
CI value compared with DMQ, in words ([4]; drug 10 μg/ml): significantly lower than DMQ
CI [5, 16]: 77%
CI [5, 17]: 13%
solubility relative to DMQ (times higher) [6]: about 70 times
water-solubility, in words [6]: a lot more water-soluble than DMQ; also recorded: significantly improved water-solubility in comparison with DMQ
solubility [6]: 5330 µg/mL (≈ 19.4 mM)
CI [7, 16]: 79%
CI [7, 17]: 10%

O=C1O[C@H]([C@H](O)CO)C(O)=C1O [D-isoascorbic acid, reference compound]
cytotoxicity at 100 µg/mL ([1]; four human tumor cell lines): < 25%
CI [2, 18]: 5%
CI [4, 18]: 24%
CI [5, 18]: 13%
CI [7, 18]: 11%
